Target: T1, Myogenin (Mus musculus, UniProt P12979)
T1 construct: electrophoretic mobility shift assays (EMSA) were carried out using muscle cell nuclear extracts; host or cells: C2C12 nuclear extract
T1 sequence (P12979 1-224): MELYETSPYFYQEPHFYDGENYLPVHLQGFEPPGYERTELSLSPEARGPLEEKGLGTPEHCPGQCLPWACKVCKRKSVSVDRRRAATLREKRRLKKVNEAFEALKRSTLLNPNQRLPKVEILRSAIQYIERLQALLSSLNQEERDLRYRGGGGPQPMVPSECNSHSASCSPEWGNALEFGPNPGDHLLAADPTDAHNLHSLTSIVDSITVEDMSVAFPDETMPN
Experiment: Electrophoretic mobility shift assay (EMSA) with muscle cell nuclear extracts
Type: binding
Settings: biotin labeled probe, C2C12 nuclear extract

Row | Sequence | binding of Myogenin protein (EMSA)
1 | CTCCTTTATTTCAGCGGAACTAAAGAAGTCTC (DNA, backbone and methylation of C not given here; duplex with complementary strand, biotin-labeled probe or unlabeled competitor) [G probe] | did not bind at all
2 | CTCCTTTATTTCAGCTGAACTAAAGAAGTCTC (DNA, backbone and methylation of C not given here; duplex with complementary strand, biotin-labeled probe or unlabeled competitor) [T probe, biotin labeled duplex EMSA probe with the escaper variant of the Jagged1 promoter] | robustly bound
